As usually defined, the IC50 is the concentration that gives 50% inhibition.

The structures appear in SMILES notation. Active and inactive are the calls of the source. The rule behind the calls is not given here.

Drawing on ChEMBL document CHEMBL1144817, “Mirabalin, [corrected] an antitumor macrolide lactam from the marine sponge Siliquariaspongia mirabilis” (J Nat Prod, 2008), this text covers IC50 and Activity for one compound.

The subject of data set [1] is HCT-116. The experiment in a line: Antitumor activity against human HCT116 cells. The data set is classed as functional, cell-based.
Data set [2] deals with Candida albicans. The experiment in a line: Antimicrobial activity against Candida albicans. The data set is classed as functional, organism-based.
Data set [3] in a line: Antiproliferative activity against green monkey kidney cells. The data set is classed as cell-based. As to conditions: chlorocebus aethiops.

As for `CO[C@@H]1[C@@H]2O[C@H](C[C@@H](O)[C@H](C)[C@@H](O)/C(C)=C/[C@H](C)[C@H](O)/C=C/CC(O)CC(C(NC(=O)CC(C)CCC(C)C(O)/C(C)=C/C(C)[C@@H](O)[C@H](NC(=O)/C=C/C(C)(C)C(=O)[C@@H](C)[C@@H](O)C(C)C)[C@@H](O)C(C)C)C(C)O)OC(=O)C(C(O)C(=O)O)NC(=O)/C=C/C=C/C=C/C=C/C=C/[C@H]2OC)C[C@@H]1C` (stereo partly drawn) [MIRABILIN MACROLIDE LACTUM], in data set [1], the IC50 was 270 nM. For the same compound, the outcome in data set [2] was inactive. Moreover, the Activity result in data set [3] is recorded as “Not Active”.
